From patent publication US4946860A, “Benzothiopyranyl derivatives as HMG-CoA reductase inhibitors” (Rorer Pharmaceutical Corporation, priority 1989, dated 1990) come the findings set out here.

In one assay the test system is cholesterol synthesis. Put plainly: Ex-Vivo Non-Fasted (cholesterol synthesis from [14C] sodium acetate in liver slices of orally dosed fed rats). Further details: species or system rat. The conditions noted are these: oral in 0.5% methocel, livers removed two hours after dosing, dose not given. How it is done:
(§1) The utility of the claimed compounds is measured by the test methods described hereunder. […] 1976, Biochemistry.
The second method used (designated Ex-Vivo Non-Fasted and Ex-Vivo Fasted) used was as follows: Rats of 170-210g were maintained on a low cholesterol diet for one week prior to use. Drugs were given orally in 0.5% methocel to both fed and fasted (fasted for 16 hours) rats. After one hour (fasted rats) and two hours (fed rats) the rats were decapitated and their livers removed and transferred to chilled oxygenated Kreb's-Ringer-bicarbonate buffer (pH 7.4). The livers were then chopped into 0.5 mm slices using a McIlwain tissue chopper, and were suspended in the same buffer. Aliquots of the suspension containing 100 mg tissue were pipetted to culture tubes which contained [^14 C] sodium acetate (2 μCi, 1 mM). The tubes were gassed with 95% O2 /5%CO2, capped and incubated at 37° C. in a shaking water bath at 150 oscillation/minute for two hours. The final assay volume was 1.0 ml. After incubation the reaction was stopped by the addition of 1.0 ml of 15% KOH in ethanol, and the internal standard ^3 H-cholesterol was added. The tubes were recapped and the samples were saponified at 75° C. for two hours with periodic mixing. […] After visualization with iodine the cholesterol spots were cut and counted with liquid scintillation fluid. […]

A further assay has as its target HMGR enzyme. The assay is described as follows: HMGR Screen (solubilized rat liver microsomal HMG-CoA reductase, [14C] HMG-CoA). Type of assay: biochemical. The conditions noted are these: 20 μM HMG-CoA, pH 7.0, 37° C. How it is done: as §1
The first method used (designated HMGR Screen) was as follows: Male rats were acclimated to an alternate 12 hour light-dark cycle for a period of 2-3 weeks. The animals, weighing 180-230g, were fed ad libitum a rat chow containing 2% cholestyramine for 5 days prior to sacrifice at the mid-dark period. Liver microsomes were prepared and HMGR enzyme was solubilized from the microsomes by freeze-thaw manipulation in high ionic strength buffer. The enzyme preparation was stored at -80° C. in 300 μl portion samples. Prior to use, the enzyme was activated at 37° C. for 30 minutes in a reaction mixture. The reaction mixture was contained in a volume of 240 μl1:0.14M potassium phosphate buffer (pH 7.0); 0.18M KCl; 3.5 mM EDTA; 10 mM dithiothreitol; 0.1 mg/ml BSA; 30,000 cpm of [^14 C] HMG-CoA; 20 μM HMG-CoA; and 200 μg of solubilized enzyme with and without inhibitors (in 10 μl DMSO). After 5 minutes incubation at 37° C. the reaction was initiated with 0.2 mM NADPH. The final assay volume was 300 μl. After 10 minutes the reaction mixture was terminated with 100 μl of 1N HCl. […] After the addition of 10 ml of Aquasol , radioactivities of the samples were measured in a scintillation counter.
Background: Liver microsomes are vesicles of endoplasmic reticulum, rich in cytochrome P450 enzymes.

The IC50 is the point on the concentration scale where inhibition reaches its midpoint. Regarding `CC1(C)Sc2ccccc2C(c2ccc(F)cc2)=C1/C=C/[C@@H]1C[C@@H](O)CC(=O)O1` (relative stereo) [Example 1G], the inhibited cholesterol synthesis in the assay on cholesterol synthesis is listed as 43%. Moreover, 9.8 nM corresponded to half-maximal inhibition at HMGR enzyme (IC50).
